Experimental data taken from patent publication US8288367B2, “Substituted estratriene derivatives as 17BETA HSD inhibitors” (Solvay Pharmaceuticals GmBH, priority 2006, dated 2012).

Tests used:
[1] = target: T1, recombinant human 17β-HSD1 (Homo sapiens, UniProt P14061); experiment: Recombinant 17β-HSD1 assay (HPLC, 3H-estrone conversion); format: biochemical; details: 30 nM estrone, 1 mM NADPH, 30 min RT, read-out: Inhibition of rec. 17β-HSD1; for inhibition at 0.1 µM: 100 nM compound; for inhibition at 1 µM: 0.5 h, 1 μm compound
T1 construct: made in house; host or cells: Sf9 insect cells (baculovirus, Bac to Bac Expression System)
T1 sequence (P14061 1-328): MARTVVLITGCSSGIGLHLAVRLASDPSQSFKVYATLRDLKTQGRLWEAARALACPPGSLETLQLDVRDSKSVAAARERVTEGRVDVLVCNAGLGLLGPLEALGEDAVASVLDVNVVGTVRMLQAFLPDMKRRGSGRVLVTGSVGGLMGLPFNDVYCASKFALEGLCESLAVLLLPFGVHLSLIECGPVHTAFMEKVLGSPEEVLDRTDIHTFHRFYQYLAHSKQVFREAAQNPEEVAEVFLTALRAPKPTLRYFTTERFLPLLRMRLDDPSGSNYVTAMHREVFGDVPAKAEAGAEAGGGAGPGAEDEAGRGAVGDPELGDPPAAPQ
Protocol: 17β-HSD1 or 17β-HSD2 purification: Recombinant 17β-HSD1 and 17β-HSD2 baculoviruses were generated by the “Bac to Bac Expression System” (Invitrogen). Recombinant 17β-HSD1 or 17β-HSD2 bacmids were transfected to Sf9 insect cells using “Cellfectin Reagent” (Invitrogen). 60 h later cells were harvested; the fractions including 17β-HSD1 or 17β-HSD2 were isolated as described by Puranen et al. (1994). Aliquots were stored frozen until determination of enzymatic activity.
Recombinant 17β-HSD1 assay: Recombinant protein homogenate (0.1 μg/ml) was incubated in 20 mM KH2PO4 pH 7.4 reaction buffer, including protease inhibitors (Complete Protease Inhibitor Cocktail tablet, Roche Diagnostics, 1697498), with 30 nM estrone (Sigma, E9750) as substrate, 800 000 cpm/ml ^3H-estrone (PerkinElmer, NET319001MC) as a tracer substrate, and 1 mM NADPH (Sigma, N1630) as a co-factor for 30 min at RT, in the presence of potential inhibitors at concentrations of 1 μM or 0.1 μM. Inhibitor stock solutions were prepared in DMSO. The enzyme reaction was stopped by addition of trichloroacetic acid (1% final concentration). Samples were centrifuged in a microtiter plate at 4000 rpm for 10 min. Supernatants were applied to reverse phase HPLC on a Waters Symmetry C18 column, equipped with a Waters Sentry Guard column. Isocratic HPLC runs were performed at RT at a flow rate of 1 ml/min of acetonitrile:water 48:52 as running solvent. Radioactivity was monitored in the eluate by a Packard Flow Scintillation Analyzer. Total radioactivity for estrone and estradiol were determined in each sample and percent inhibition of estradiol conversion by the respective inhibitor was calculated
For the calculation of % inhibition the following formula was used:
[formula] Percent inhibition was calculated as follows: % inhibition=100−% conversion

[2] = target: T2, recombinant human 17β-HSD2 (Homo sapiens, UniProt P37059); experiment: Recombinant 17β-HSD2 assay (HPLC, 3H-estradiol conversion); format: biochemical; details: 50 nM estradiol, 1 mM β-NAD, read-out: Inhibition of rec. 17β-HSD2; for inhibition at 0.1 µM: 100 nM compound; for inhibition at 1 µM: 1 μm compound
T2 construct: made in house; host or cells: Sf9 insect cells (baculovirus, Bac to Bac Expression System)
T2 sequence (P37059 1-387): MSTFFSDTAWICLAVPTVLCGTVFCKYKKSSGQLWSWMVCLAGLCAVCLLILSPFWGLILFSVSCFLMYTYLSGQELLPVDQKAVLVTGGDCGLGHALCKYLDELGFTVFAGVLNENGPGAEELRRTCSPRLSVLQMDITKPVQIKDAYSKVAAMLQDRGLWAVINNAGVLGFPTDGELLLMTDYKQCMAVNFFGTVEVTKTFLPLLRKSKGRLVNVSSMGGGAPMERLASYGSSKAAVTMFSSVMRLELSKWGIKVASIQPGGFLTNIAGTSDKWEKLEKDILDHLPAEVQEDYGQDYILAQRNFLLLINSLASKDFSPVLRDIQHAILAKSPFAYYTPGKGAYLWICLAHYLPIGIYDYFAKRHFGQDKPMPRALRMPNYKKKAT
Protocol: 17β-HSD1 or 17β-HSD2 purification: Recombinant 17β-HSD1 and 17β-HSD2 baculoviruses were generated by the “Bac to Bac Expression System” (Invitrogen). Recombinant 17β-HSD1 or 17β-HSD2 bacmids were transfected to Sf9 insect cells using “Cellfectin Reagent” (Invitrogen). 60 h later cells were harvested; the fractions including 17β-HSD1 or 17β-HSD2 were isolated as described by Puranen et al. (1994). Aliquots were stored frozen until determination of enzymatic activity. Recombinant 17β-HSD2 assay: Recombinant 17β-HSD2 assay was performed as described for 17β-HSD1 but with following modifications: 6 μg/ml of recombinant protein homogenate, 50 nM Estradiol (Sigma, E8875) as a substrate, 800 000 cpm/ml ^3H-estradiol (PerkinElmer, NET317) as a tracer substrate and 1 mM β-NAD (Sigma N7004) as a co-factor were used. Total radioactivity for estrone and estradiol were determined in each sample and percent inhibition of estrone conversion by the respective inhibitor was calculated. For the calculation of % inhibition the following formula was used: [formula] Percent inhibition was calculated as follows: % inhibition=100−% conversion

Compound	inhibition at 0.1 µM [1] [%]	inhibition at 1 µM [1] [%]	inhibition at 0.1 µM [2] [%]	inhibition at 1 µM [2] [%]
C[C@]12CC[C@@H]3c4ccc(B(O)O)cc4CC[C@H]3[C@@H]1[C@@H](CCCC(=O)NCc1ccc(O)c(O)c1)CC2=O [Compound 12, [15alpha-{4-[(3,4-dihydroxybenzyl)amino]-4-oxobutyl}-17-oxoestra-1(10),2,4-trien-3-yl]boronic acid]	32	57	-5	6.2
COc1ccc(CCN(C)C(=O)CCC[C@H]2CC(F)(F)[C@@]3(C)CC[C@@H]4c5ccc(B(O)O)cc5CC[C@H]4[C@H]23)cc1OC [Compound 51, [15alpha-(4-{[2-(3,4-dimethoxyphenyl)ethyl](methyl)amino}-4-oxobutyl)-17,17-difluoroestra-1(10),2,4-trien-3-yl]boronic acid]	37	62	2.8	7.8
CCN(CC)C(=O)CC[C@@H]1CC(=O)[C@@]2(C)CC[C@@H]3c4ccc(B(O)O)cc4CC[C@H]3[C@H]12 [Compound 39, [15beta-[3-(diethylamino)-3-oxopropyl]-17-oxoestra-1(10),2,4-trien-3-yl]boronic acid]	74	88	1.8	-0.6
CN(Cc1ccccc1)C(=O)CC[C@@H]1CC(=O)[C@@]2(C)CC[C@@H]3c4ccc(B(O)O)cc4CC[C@H]3[C@H]12 [Compound 37, [15beta-{3-[benzyl(methyl)amino]-3-oxopropyl}-17-oxoestra-1(10),2,4-trien-3-yl]boronic acid]	22	49	–	–
C[C@]12CC[C@@H]3c4ccc(B(O)O)cc4CC[C@H]3[C@@H]1[C@H](CCC(=O)Nc1ccc3c(c1)OCO3)CC2=O [Compound 45, [15beta-[3-(1,3-benzodioxol-5-ylamino)-3-oxopropyl]-17-oxoestra-1(10),2,4-trien-3-yl]boronic acid]	49	66	-1	-1.1
C[C@]12CC[C@@H]3c4ccc(B(O)O)cc4CC[C@H]3[C@@H]1[C@H](CCC(=O)N1CCOCC1)CC2=O [Compound 33, [15beta-(3-morpholin-4-yl-3-oxopropyl)-17-oxoestra-1(10),2,4-trien-3-yl]boronic acid]	20	59	-2.3	-1.1
COc1ccc(CCN(C)C(=O)CCC[C@H]2CC(=O)[C@@]3(C)CC[C@@H]4c5ccc(B(O)O)cc5CC[C@H]4[C@H]23)cc1OC [Compound 26, [15alpha-(4-{[2-(3,4-dimethoxyphenyl)ethyl](methyl)amino}-4-oxobutyl)-17-oxoestra-1(10),2,4-trien-3-yl]boronic acid]	21	41	–	–
COc1cc(Nc2ccc3c(c2)CC[C@H]2[C@@H]4[C@@H](CCCC(=O)N5CCOCC5)CC(=O)[C@@]4(C)CC[C@H]32)cc(C(F)(F)F)c1 [Compound 75, 3-{[3-methoxy-5-(trifluoromethyl)phenyl]amino}-15alpha-(4-morpholin-4-yl-4-oxobutyl)estra-1(10),2,4-trien-17-one]	36	50	–	–
C[C@]12CC[C@@H]3c4ccc(B(O)O)cc4CC[C@H]3[C@@H]1[C@H](CCC(=O)Nc1ccc3c(c1)OCO3)CC2(F)F [Compound 74, [15beta-[3-(1,3-benzodioxol-5-ylamino)-3-oxopropyl]-17,17-difluoroestra-1(10),2,4-trien-3-yl]boronic acid]	55.6	71.4	4.9	5.5
C[C@]12CC[C@@H]3c4ccc(B(O)O)cc4CC[C@H]3[C@@H]1[C@@H](CCCC(=O)NCc1ccc3c(c1)OCO3)CC2=O [Compound 19, [15alpha-{4-[(1,3-benzodioxol-5-ylmethyl)amino]-4-oxobutyl}-17-oxoestra-1(10),2,4-trien-3-yl]boronic acid]	19	43	-2.4	0.1
C[C@]12CC[C@@H]3c4ccc(B(O)O)cc4CC[C@H]3[C@@H]1[C@@H](CCCC(=O)N1CCOCC1)CC2(F)F [Compound 47, [17,17-difluoro-15alpha-(4-morpholin-4-yl-4-oxobutyl)estra-1(10),2,4-trien-3-yl]boronic acid]	10	61	3.8	12.9
Cc1cnc(NC(=O)CC[C@@H]2CC(=O)[C@@]3(C)CC[C@@H]4c5ccc(B(O)O)cc5CC[C@H]4[C@H]23)s1 [Compound 31, [15beta-{3-[(5-methyl-1,3-thiazol-2-yl)amino]-3-oxopropyl}-17-oxoestra-1(10),2,4-trien-3-yl]boronic acid]	82	90	2.6	1.6
Cc1cnc(NC(=O)CCC[C@H]2CC(=O)[C@@]3(C)CC[C@@H]4c5ccc(B(O)O)cc5CC[C@H]4[C@H]23)s1 [Compound 16, [15alpha-{4-[(5-methyl-1,3-thiazol-2-yl)amino]-4-oxobutyl}-17-oxoestra-1(10),2,4-trien-3-yl]boronic acid]	30	59	–	–
C[C@]12CC[C@@H]3c4ccc(Nc5cnc6ccccc6c5)cc4CC[C@H]3[C@@H]1[C@@H](CCCC(=O)N1CCOCC1)CC2=O [Compound 83, 15alpha-(4-morpholin-4-yl-4-oxobutyl)-3-(quinolin-3-ylamino)estra-1(10),2,4-trien-17-one]	19	50	–	–
C[C@]12CC[C@@H]3c4ccc(Nc5cccc(S(=O)(=O)N6CCOCC6)c5)cc4CC[C@H]3[C@@H]1[C@@H](CCCC(=O)N1CCOCC1)CC2=O [Compound 76, 15alpha-(4-morpholin-4-yl-4-oxobutyl)-3-{[3-(morpholin-4-ylsulfonyl)phenyl]amino}estra-1(10),2,4-trien-17-one]	29	26	–	–
CN(Cc1ccccc1)C(=O)CCC[C@H]1CC(=O)[C@@]2(C)CC[C@@H]3c4ccc(B(O)O)cc4CC[C@H]3[C@H]12 [Compound 22, [15alpha-{4-[benzyl(methyl)amino]-4-oxobutyl}-17-oxoestra-1(10),2,4-trien-3-yl]boronic acid]	37	60	–	–
